Reference: patent US20070004650A1, “Endurance improving agent” (KAO CORPORATION, priority 2003, published 2007)

Experiments:
Type in all cases: cell-based, mouse
phospho-AMPK α (Thr72) = experiment: AMPK activation in Hepa 1-6 cells, phospho-AMPK α Western blot; details: for Phospho-AMPK α: 60 minutes, Hepa 1-6, band intensity relative to control = 100; for AMPK-activating effect (summary in words): Hepa 1-6, results of Tables 4 to 6
Protocol: (§1) Test 3 (AMPK Activating Effect of Catechins)
(§2) Using a mouse hepatocyte line (Hepa 1-6), activation of AMPK was assessed based on degrees of phosphorylation of AMPK and ACC (acetyl-CoA carboxylase) as indices.
The mouse hepatocyte line (Hepa 1-6) was seeded in a 25-cm^2 flask, and cultured in DMEM (+10% FBS, +antimicrobial agent) at 37° C. for 1 to 2 days. When the culture has become subconfluent, the medium was removed. After washed with PBS(−),DMEM(−FBS)was added as a replacement medium, followed by further culture for 1 day. Subsequent to removal of the medium, DMEM (−FBS) with catechins and a tea extract added at predetermined concentrations therein was added, followed by culture for 60 minutes. Subsequent to removal of the medium and washing with PBS (−), a lytic solution [10 mM Tris (pH 7.4), 50 mM NaCl, 30 mM sodium pyrophosphate, 0.5% Triton X-100, protease inhibitor cocktail (“SIGMA P2714”), phosphatase inhibitor cocktail-1 (“SIGMA P2850”), phosphatase inhibitor cocktail 1-2 (“SIGMA P5726”); 200 μL] was added, and a lysate was collected by a cell scraper. The thus-collected lysate was caused to pass three times through a syringe with 23 G needle so that the lysate was homogenized. The homogenized lysate was then allowed stand on ice for 30 minutes. The lysate was centrifuged at 15,000 rpm and at 4° C. for 15 minutes, and proteins in supernatant were provided for use in the following experiment.
After the concentration of the proteins in supernatant was measured, it was adjusted such that the protein concentration became identical among the samples. A ¼ volume of SDS buffer (250 mM Tris, 12.5% SDS, 20% glycerol) was added, followed by further addition of 2-mercaptoethanol and bromophenol blue. The resulting mixture was subjected to thermal denaturation at 95° C., and was then quenched at 4° C. to provide a sample for electrophoresis.
A predetermined amount (about 20 to 40 μg) of the sample for electrophoresis was subjected to SDS-PAGE (4 or 12% gel). After transferred onto a membrane, phospho-AMPK α (Thr72), phospho-AMPK β (Ser108) and phospho-ACC (Ser79) were detected using an anti-phospho-AMPK α antibody (product of Cell Signaling Technology, Inc.), an anti-phospho-AMPK β antibody (product of Cell Signaling Technology, Inc.) or an anti-phospho-ACC antibody (product of Cell Signaling Technology, Inc.) as a primary antibody, an anti-rabbit-HRP antibody (product of Amersham Biosciences, Inc.) as a secondary antibody, and a phototope-HRP Western detection system (product of Cell Signaling Technology, Inc.) as a detection reagent. The intensities of detected bands were converted into numerical values (pixels) by an image analysis (“EDAS 290 Image Analysis System”, Kodak Company). Supposing that the corresponding band intensities of the control (catechins non-added group) were 100, the numerical values (pixels) were indicated as relative values to the values of the control. It is to be noted that as catechin samples, products of SIGMA Corporation or Wako Pure Chemical Industries, Ltd. were used. As the tea extract (tea catechins), “TEAFURAN” (product of ITO EN, LTD.) as used.

phospho-ACC (Ser79) = experiment: AMPK activation in Hepa 1-6 cells, phospho-ACC Western blot; details: 60 minutes, band intensity relative to control = 100
Protocol: The mouse hepatocyte line (Hepa 1-6) was seeded in a 25-cm^2 flask, and cultured in DMEM (+10% FBS, +antimicrobial agent) at 37° C. for 1 to 2 days. When the culture has become subconfluent, the medium was removed. After washed with PBS(−),DMEM(−FBS)was added as a replacement medium, followed by further culture for 1 day. Subsequent to removal of the medium, DMEM (−FBS) with catechins and a tea extract added at predetermined concentrations therein was added, followed by culture for 60 minutes. […]
A predetermined amount (about 20 to 40 μg) of the sample for electrophoresis was subjected to SDS-PAGE (4 or 12% gel). […] The intensities of detected bands were converted into numerical values (pixels) by an image analysis (“EDAS 290 Image Analysis System”, Kodak Company). […]

phospho-AMPK β (Ser108) = experiment: AMPK activation in Hepa 1-6 cells, phospho-AMPK β Western blot; details: 60 minutes, band intensity relative to control = 100
Protocol: as §1, §2
The mouse hepatocyte line (Hepa 1-6) was seeded in a 25-cm^2 flask, and cultured in DMEM (+10% FBS, +antimicrobial agent) at 37° C. for 1 to 2 days. When the culture has become subconfluent, the medium was removed. After washed with PBS(−),DMEM(−FBS)was added as a replacement medium, followed by further culture for 1 day. […]
After the concentration of the proteins in supernatant was measured, it was adjusted such that the protein concentration became identical among the samples. […]
A predetermined amount (about 20 to 40 μg) of the sample for electrophoresis was subjected to SDS-PAGE (4 or 12% gel). After transferred onto a membrane, phospho-AMPK α (Thr72), phospho-AMPK β (Ser108) and phospho-ACC (Ser79) were detected using an anti-phospho-AMPK α antibody (product of Cell Signaling Technology, Inc.), an anti-phospho-AMPK β antibody (product of Cell Signaling Technology, Inc.) or an anti-phospho-ACC antibody (product of Cell Signaling Technology, Inc.) as a primary antibody, an anti-rabbit-HRP antibody (product of Amersham Biosciences, Inc.) as a secondary antibody, and a phototope-HRP Western detection system (product of Cell Signaling Technology, Inc.) as a detection reagent. […]

| Molecule | Phospho-AMPK α (phospho-AMPK α (Thr72); Table 4, 150 μM) | AMPK-activating effect (summary in words) (phospho-AMPK α (Thr72)) | also measured |
| --- | --- | --- | --- |
| Oc1cc(O)c2c(c1)O[C@H](c1ccc(O)c(O)c1)[C@H](O)C2 [Epicatechin] | 246 |  |  |
| O=C(O[C@@H]1Cc2c(O)cc(O)cc2O[C@@H]1c1ccc(O)c(O)c1)c1cc(O)c(O)c(O)c1 [Epicatechingallate] | 256 |  |  |
| Oc1cc(O)c2c(c1)O[C@H](c1cc(O)c(O)c(O)c1)[C@H](O)C2 [Epigallocatechin] | 435 | excellent AMPK-activating effect |  |
| O=C(O[C@@H]1Cc2c(O)cc(O)cc2O[C@@H]1c1cc(O)c(O)c(O)c1)c1cc(O)c(O)c(O)c1 [Epigallocatechingallate] | 1085 | excellent AMPK-activating effect | Phospho-ACC (phospho-ACC (Ser79); Table 5, 100 μM): 220; Phospho-ACC (phospho-ACC (Ser79); Table 5, 150 μM): 304; Phospho-AMPK β (phospho-AMPK β (Ser108); Table 5, 100 μM): 120; Phospho-AMPK β (phospho-AMPK β (Ser108); Table 5, 150 μM): 149; Phospho-AMPK α (phospho-AMPK α (Thr72); Table 5, 100 μM): 198; Phospho-AMPK α (phospho-AMPK α (Thr72); Table 5, 150 μM): 261 |
| Oc1cc(O)c2c(c1)O[C@H](c1cc(O)c(O)c(O)c1)[C@@H](O)C2 [Gallocatechin] | 451 | excellent AMPK-activating effect |  |
| O=C(O[C@@H]1Cc2c(O)cc(O)cc2O[C@H]1c1cc(O)c(O)c(O)c1)c1cc(O)c(O)c(O)c1 [Gallocatechingallate] | 1124 | excellent AMPK-activating effect |  |
| Catechin | 78 |  |  |
| Catechingallate | 369 |  |  |
